Test results as given in PubChem BioAssay AID248 (DTP/NCI, 2004).
Where “and” joins values, the source holds several entries; their conditions need not be identical. Equal values may be shown once. Toxic doses and inconclusive results are not listed. Cut-off read from the data, not from the text of the source: active = T/C of 150% or more; inactive = T/C below 125%.

Test system: L1210 leukemia ip in BDF1 mice, survival T/C
Test: NCI In Vivo Anticancer Drug Screen. Data for tumor model L1210 Leukemia (intraperitoneal) in B6D2F1 (BDF1) mice
Conditions: endpoint: mean survival time, higher = longer survival
Summary of the method: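 Transplanted-tumor mice were given test agent; controls received vehicle only. Survival readings from the two groups were divided (treated over control).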

[1] = dose: 100.0 mg/kg/injection, schedule: Q04DX003 (ip), vehicle: saline
[2] = dose: 200.0 mg/kg/injection, schedule: Q04DX003 (ip), vehicle: saline
[3] = dose: 100.0 mg/kg/injection, schedule: Q04DX003 (ip), vehicle: Klucel (hydroxypropylcellulose) (HPC)
[4] = dose: 200.0 mg/kg/injection, schedule: Q04DX003 (ip), vehicle: Klucel (hydroxypropylcellulose) (HPC)
[5] = dose: 400.0 mg/kg/injection, schedule: Q04DX003 (ip), vehicle: Klucel (hydroxypropylcellulose) (HPC)
[6] = dose: 100.0 mg/kg/injection, schedule: Q04DX003 (ip), vehicle: saline with Tween-80
[7] = dose: 200.0 mg/kg/injection, schedule: Q04DX003 (ip), vehicle: saline with Tween-80
[8] = dose: 400.0 mg/kg/injection, schedule: Q04DX003 (ip), vehicle: saline with Tween-80
[9] = dose: 6.25 mg/kg/injection, schedule: Q01DX009 (ip), vehicle: saline with Tween-80
[10] = dose: 12.5 mg/kg/injection, schedule: Q01DX009 (ip), vehicle: saline with Tween-80
[11] = dose: 25.0 mg/kg/injection, schedule: Q01DX009 (ip), vehicle: saline
[12] = dose: 50.0 mg/kg/injection, schedule: Q01DX009 (ip), vehicle: saline
[13] = dose: 100.0 mg/kg/injection, schedule: Q01DX009 (ip), vehicle: saline
[14] = dose: 200.0 mg/kg/injection, schedule: Q01DX009 (ip), vehicle: saline
[15] = dose: 400.0 mg/kg/injection, schedule: Q01DX009 (ip), vehicle: saline
[16] = dose: 75.0 mg/kg/injection, schedule: Q01DX001 (ip), vehicle: saline
[17] = dose: 150.0 mg/kg/injection, schedule: Q01DX001 (ip), vehicle: saline
[18] = dose: 100.0 mg/kg/injection, schedule: Q01DX009 (ip), vehicle: acetone

Measured: T/C

O=C1NC(=O)C([N+](=O)[O-])=C(O)C1=O
inactive: [1] 96 % of control | [2] 101 % of control

CC1CCC2=CC(=O)CCC2(C)C1C (configuration not stated)
inactive: dose: 100.0 mg/kg/injection, schedule: Q01DX009 (ip), vehicle: saline with Tween-80 101 % of control | dose: 200.0 mg/kg/injection, schedule: Q01DX009 (ip), vehicle: saline with Tween-80 96 % of control | dose: 400.0 mg/kg/injection, schedule: Q01DX009 (ip), vehicle: saline with Tween-80 91 % of control

O=C(O)C(SSC(C(=O)O)(c1ccccc1)c1ccccc1)(c1ccccc1)c1ccccc1
inactive: [3] 106 % of control | [4] 102 % of control | [5] 88 % of control

Cc1cc(O)c(O)c(S(=O)(=O)c2ccc(N)cc2)c1
inactive: dose: 75.0 mg/kg/injection, schedule: Q01DX009 (ip), vehicle: carboxymethylcellulose (CMC) 93 % of control | dose: 150.0 mg/kg/injection, schedule: Q01DX009 (ip), vehicle: carboxymethylcellulose (CMC) 89 % of control | dose: 300.0 mg/kg/injection, schedule: Q01DX009 (ip), vehicle: carboxymethylcellulose (CMC) 86 % of control

Brc1ccc(Br)c2cnccc12
inactive: dose: 100.0 mg/kg/injection, schedule: Q01DX001 (ip), vehicle: other 93 % of control | dose: 200.0 mg/kg/injection, schedule: Q01DX001 (ip), vehicle: other 106 % of control | dose: 400.0 mg/kg/injection, schedule: Q01DX001 (ip), vehicle: other 104 % of control

Cc1cnc(N[N+](=O)[O-])nc1-c1ccccc1O
inactive: dose: 100.0 mg/kg/injection, schedule: Q04DX002 (ip), vehicle: Klucel (hydroxypropylcellulose) (HPC) 96 % of control | dose: 200.0 mg/kg/injection, schedule: Q04DX002 (ip), vehicle: Klucel (hydroxypropylcellulose) (HPC) 108 % of control | dose: 400.0 mg/kg/injection, schedule: Q04DX002 (ip), vehicle: Klucel (hydroxypropylcellulose) (HPC) 105 % of control

CC(C)(C)C1CCC2OC(C)(C(C)(C)C)CC(C(C)(C)C)C2C1 (configuration not stated)
inactive: dose: 100.0 mg/kg/injection, schedule: Q01DX001 (ip), vehicle: saline with Tween-80 100 % of control | dose: 200.0 mg/kg/injection, schedule: Q01DX001 (ip), vehicle: saline with Tween-80 100 % of control | dose: 400.0 mg/kg/injection, schedule: Q01DX001 (ip), vehicle: saline with Tween-80 95 % of control

CC(=O)c1cccc(NC(=O)Nc2cccc(C)n2)c1
inactive: dose: 100.0 mg/kg/injection, schedule: Q01DX009 (ip), vehicle: Klucel (hydroxypropylcellulose) (HPC) 106 % of control | dose: 200.0 mg/kg/injection, schedule: Q01DX009 (ip), vehicle: Klucel (hydroxypropylcellulose) (HPC) 102 % of control | dose: 400.0 mg/kg/injection, schedule: Q01DX009 (ip), vehicle: Klucel (hydroxypropylcellulose) (HPC) 101 % of control

CCCCCCCC(=O)Nc1cccc(C)c1C
inactive: [6] 101 % of control | [7] 87 % of control | [8] 101 % of control

C#CC(OC(=O)NC1CCCCC1)(c1ccccc1)c1ccccc1
active: [12] 157 % of control
inactive: dose: 3.0 mg/kg/injection, schedule: Q01DX009 (ip), vehicle: carboxymethylcellulose (CMC) 101 % of control | dose: 6.0 mg/kg/injection, schedule: Q01DX009 (ip), vehicle: carboxymethylcellulose (CMC) 100 % of control | [9] 106 % of control | dose: 12.0 mg/kg/injection, schedule: Q01DX009 (ip), vehicle: carboxymethylcellulose (CMC) 110 % of control | [10] 106 % of control | dose: 12.5 mg/kg/injection, schedule: Q01DX009 (ip), vehicle: saline 106 % of control | dose: 25.0 mg/kg/injection, schedule: Q01DX009 (ip), vehicle: carboxymethylcellulose (CMC) 116 % of control | [11] 114 % of control | dose: 88.0 mg/kg/injection, schedule: Q04DX003 (ip), vehicle: saline sonified 107 % of control | dose: 100.0 mg/kg/injection, schedule: Q01DX001 (ip), vehicle: carboxymethylcellulose (CMC) 97 % of control | dose: 100.0 mg/kg/injection, schedule: Q01DX009 (ip), vehicle: saline sonified 96 % of control | [13] 97 % of control | dose: 132.0 mg/kg/injection, schedule: Q04DX003 (ip), vehicle: saline sonified 110 % of control | dose: 200.0 mg/kg/injection, schedule: Q01DX001 (ip), vehicle: carboxymethylcellulose (CMC) 104 % of control | dose: 300.0 mg/kg/injection, schedule: Q04DX003 (ip), vehicle: saline sonified 110 % of control | dose: 400.0 mg/kg/injection, schedule: Q01DX001 (ip), vehicle: carboxymethylcellulose (CMC) 116 % of control

Nc1nc(N)c(-c2ccc(Cl)c(Cl)c2)c(COc2cccc(CNC(=O)c3cccc(S(=O)(=O)F)c3)c2)n1
inactive: [11] 110 % of control | [12] 102 % of control | [13] 98 % of control | [14] 102 % of control | [15] 105 % of control

O=C(NC(Cc1ccccc1)C(=O)CCl)OCc1ccccc1 (configuration not stated)
inactive: dose: 25.0 mg/kg/injection, schedule: Q01DX009 (ip), vehicle: saline with Tween-80 115 % of control | dose: 25.0 mg/kg/injection, schedule: Q04DX002 (ip), vehicle: other 107 % of control | dose: 50.0 mg/kg/injection, schedule: Q01DX009 (ip), vehicle: saline with Tween-80 95 % of control | dose: 50.0 mg/kg/injection, schedule: Q04DX002 (ip), vehicle: other 93 % of control | dose: 100.0 mg/kg/injection, schedule: Q04DX002 (ip), vehicle: other 104 % of control | dose: 100.0 mg/kg/injection, schedule: Q04DX003 (ip), vehicle: saline sonified 108 % of control

Cc1cnc(C(=O)O)c(N)n1
inactive: [16] 105 % of control | [17] 93 % of control

CCOC(CN)C(Cl)(Cl)Cl (configuration not stated)
inactive: [12] 98 % of control | [13] 98 % of control and 104 % of control | [14] 101 % of control and 116 % of control

O=C1C(Cl)=CC(=NS(=O)(=O)c2ccccc2)C=C1Cl
inactive: [9] 96 % of control | [10] 96 % of control

COc1ccc(N2CCNCC2)cc1
inactive: dose: 5.0 mg/kg/injection, schedule: Q01DX001 (ip), vehicle: saline 103 % of control | dose: 10.0 mg/kg/injection, schedule: Q01DX001 (ip), vehicle: saline 103 % of control | dose: 20.0 mg/kg/injection, schedule: Q01DX001 (ip), vehicle: saline 97 % of control | dose: 40.0 mg/kg/injection, schedule: Q01DX001 (ip), vehicle: saline 105 % of control

Nc1ccc(Cl)cc1C(=O)c1ccccn1
inactive: [6] 100 % of control | [7] 108 % of control | [8] 97 % of control

CC(C)N1CCOCC1
inactive: dose: 25.0 mg/kg/injection, schedule: Q01DX009 (ip), vehicle: acetone 94 % of control | dose: 50.0 mg/kg/injection, schedule: Q01DX009 (ip), vehicle: acetone 105 % of control | [18] 102 % of control

CCn1c(C)nccc1=O
inactive: dose: 37.5 mg/kg/injection, schedule: Q01DX001 (ip), vehicle: saline 101 % of control | [16] 101 % of control | [17] 100 % of control

O=C1NC2(c3ccccc3)NC(=O)NC2(c2ccccc2)N1 (configuration not stated)
inactive: dose: 100.0 mg/kg/injection, schedule: Q01DX001 (ip), vehicle: saline 97 % of control | [13] 91 % of control | [1] 102 % of control | dose: 200.0 mg/kg/injection, schedule: Q01DX001 (ip), vehicle: saline 92 % of control | [14] 97 % of control | [2] 95 % of control | dose: 400.0 mg/kg/injection, schedule: Q01DX001 (ip), vehicle: saline 100 % of control | [15] 102 % of control | dose: 400.0 mg/kg/injection, schedule: Q04DX003 (ip), vehicle: saline 102 % of control

CCN(CC)C(=O)Nc1ccc(C(=O)O)c(O)c1
inactive: [3] 95 % of control | [4] 90 % of control | [5] 90 % of control

Nc1c(Br)cc(Br)c2ccccc12
inactive: [18] 93 % of control | [6] 97 % of control | dose: 200.0 mg/kg/injection, schedule: Q01DX009 (ip), vehicle: acetone 91 % of control | [7] 92 % of control | dose: 400.0 mg/kg/injection, schedule: Q01DX009 (ip), vehicle: acetone 93 % of control | [8] 97 % of control
